Laboratory results as given in ChEMBL document CHEMBL1201862, “PubChem BioAssay data set” (2004).
Activity calls are given as the source filed them.

Tests used:
Exodeoxyribonuclease V = biological target: T1, Exodeoxyribonuclease V (Escherichia coli (strain K12), UniProt P04993+P07648+P08394); test: E. coli RecBCD inhibitors, dose response, counter-screen for AddAB inhibitor project, absorbance, V66 E. coli, mutant T4 phage (AID 492957); assay type: functional, cell-based, Escherichia coli str. K-12 substr. MG1655
T1 sequence (P04993 whole entry): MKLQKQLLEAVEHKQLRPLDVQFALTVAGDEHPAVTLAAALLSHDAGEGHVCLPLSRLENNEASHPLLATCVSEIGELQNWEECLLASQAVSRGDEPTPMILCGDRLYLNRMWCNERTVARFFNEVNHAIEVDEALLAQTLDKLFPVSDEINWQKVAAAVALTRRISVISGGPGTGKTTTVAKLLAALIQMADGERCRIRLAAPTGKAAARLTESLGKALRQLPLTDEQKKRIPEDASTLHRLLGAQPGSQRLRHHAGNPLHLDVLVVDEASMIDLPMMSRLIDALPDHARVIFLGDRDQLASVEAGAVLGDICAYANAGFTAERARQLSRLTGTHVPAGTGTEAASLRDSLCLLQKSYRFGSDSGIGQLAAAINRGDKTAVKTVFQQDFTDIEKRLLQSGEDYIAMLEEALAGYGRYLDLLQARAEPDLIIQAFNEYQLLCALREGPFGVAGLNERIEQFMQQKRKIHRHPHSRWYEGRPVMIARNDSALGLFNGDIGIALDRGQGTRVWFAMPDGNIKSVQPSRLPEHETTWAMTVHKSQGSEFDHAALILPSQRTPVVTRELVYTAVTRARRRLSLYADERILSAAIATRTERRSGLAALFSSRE
T1 sequence (P07648 whole entry): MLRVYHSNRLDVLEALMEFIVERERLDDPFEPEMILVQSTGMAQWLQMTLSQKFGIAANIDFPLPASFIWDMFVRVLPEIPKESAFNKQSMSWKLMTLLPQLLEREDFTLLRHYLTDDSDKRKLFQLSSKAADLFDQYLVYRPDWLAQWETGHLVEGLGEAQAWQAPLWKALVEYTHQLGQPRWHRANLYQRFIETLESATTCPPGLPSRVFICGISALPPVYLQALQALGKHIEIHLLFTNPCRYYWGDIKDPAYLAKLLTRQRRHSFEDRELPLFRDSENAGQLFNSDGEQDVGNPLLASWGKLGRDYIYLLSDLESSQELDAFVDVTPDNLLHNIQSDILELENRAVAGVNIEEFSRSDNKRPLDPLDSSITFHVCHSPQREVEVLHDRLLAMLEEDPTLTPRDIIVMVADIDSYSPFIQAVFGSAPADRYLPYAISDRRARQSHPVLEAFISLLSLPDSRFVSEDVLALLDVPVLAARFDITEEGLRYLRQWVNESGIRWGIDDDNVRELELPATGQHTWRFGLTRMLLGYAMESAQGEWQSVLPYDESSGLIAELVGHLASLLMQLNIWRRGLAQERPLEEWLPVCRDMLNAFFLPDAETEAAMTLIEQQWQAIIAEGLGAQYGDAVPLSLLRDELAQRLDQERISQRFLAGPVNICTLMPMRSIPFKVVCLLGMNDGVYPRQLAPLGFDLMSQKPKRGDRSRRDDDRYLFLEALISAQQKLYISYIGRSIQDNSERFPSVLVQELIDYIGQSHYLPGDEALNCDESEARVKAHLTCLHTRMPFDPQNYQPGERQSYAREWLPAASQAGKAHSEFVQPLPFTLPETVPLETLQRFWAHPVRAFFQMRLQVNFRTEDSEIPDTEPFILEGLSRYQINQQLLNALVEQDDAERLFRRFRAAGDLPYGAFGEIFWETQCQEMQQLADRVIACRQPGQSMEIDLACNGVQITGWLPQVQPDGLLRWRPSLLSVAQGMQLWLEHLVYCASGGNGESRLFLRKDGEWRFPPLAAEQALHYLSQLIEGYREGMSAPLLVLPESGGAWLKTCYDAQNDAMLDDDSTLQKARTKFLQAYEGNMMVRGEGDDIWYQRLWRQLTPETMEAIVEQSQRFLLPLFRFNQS
T1 sequence (P08394 whole entry): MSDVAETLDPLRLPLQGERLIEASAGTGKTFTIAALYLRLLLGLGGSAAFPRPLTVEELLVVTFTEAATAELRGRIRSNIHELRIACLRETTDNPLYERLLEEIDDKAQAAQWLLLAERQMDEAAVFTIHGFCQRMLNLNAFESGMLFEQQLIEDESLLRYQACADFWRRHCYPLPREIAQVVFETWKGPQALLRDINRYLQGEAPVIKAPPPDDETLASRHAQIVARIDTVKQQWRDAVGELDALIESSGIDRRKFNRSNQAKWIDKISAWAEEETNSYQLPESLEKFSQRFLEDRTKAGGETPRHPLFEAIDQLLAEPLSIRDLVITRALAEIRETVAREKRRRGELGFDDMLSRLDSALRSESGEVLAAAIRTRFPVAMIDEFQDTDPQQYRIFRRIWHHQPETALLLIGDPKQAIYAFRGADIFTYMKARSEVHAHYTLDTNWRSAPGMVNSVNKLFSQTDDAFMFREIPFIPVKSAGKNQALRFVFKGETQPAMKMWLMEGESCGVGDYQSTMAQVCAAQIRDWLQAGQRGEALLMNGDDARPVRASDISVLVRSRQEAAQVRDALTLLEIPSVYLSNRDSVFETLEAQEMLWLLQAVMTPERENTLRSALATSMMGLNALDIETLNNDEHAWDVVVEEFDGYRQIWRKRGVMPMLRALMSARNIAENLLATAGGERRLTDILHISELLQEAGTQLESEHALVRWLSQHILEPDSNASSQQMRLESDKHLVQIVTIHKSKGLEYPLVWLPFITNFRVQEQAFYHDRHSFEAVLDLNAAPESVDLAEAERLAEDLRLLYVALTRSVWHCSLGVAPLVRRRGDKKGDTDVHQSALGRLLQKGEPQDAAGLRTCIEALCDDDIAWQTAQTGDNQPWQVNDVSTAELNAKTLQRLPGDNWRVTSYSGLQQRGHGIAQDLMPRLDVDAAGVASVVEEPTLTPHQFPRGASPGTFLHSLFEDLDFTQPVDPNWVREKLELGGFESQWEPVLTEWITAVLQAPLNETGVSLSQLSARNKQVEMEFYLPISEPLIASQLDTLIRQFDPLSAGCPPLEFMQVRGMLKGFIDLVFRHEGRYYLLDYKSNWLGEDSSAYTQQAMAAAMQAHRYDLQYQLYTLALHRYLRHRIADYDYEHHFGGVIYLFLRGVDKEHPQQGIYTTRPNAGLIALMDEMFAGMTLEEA

[1] = C. albicans growth with fluconazole, confirmation, fluorescence, retest (AID 2467); assay type: functional, cell-based

| Compound | IC50 (Exodeoxyribonuclease V) | EC50 [1] |
| --- | --- | --- |
| CCCCC(=O)NC(c1ccc(Cl)cc1)c1ccc2cccnc2c1O (stereo unspecified) | > 119 µM (inactive) | 0.413 µM (active) |
| CCCCC(=O)NC(c1ccco1)c1cc(Cl)c2cccnc2c1O (stereo unspecified) | > 119 µM (inactive) | 0.537 µM (active) |
| O=C(N/N=C/c1ccccc1O)/C(O)=C\C1=NC2(CCCC2)Cc2ccccc21 | > 119 µM (inactive) | 0.663 µM (active) |
